# According to patent US20260125645A1, “METHODS AND PHARMACOLOGICAL AGENTS FOR INCREASING EXPANSION, ENGRAFTMENT OR IMMUNE OUTPUT OF HUMAN HEMATOPOIETIC STEM CELLS IN TRANSPLANTATION AND DISEASE SETTINGS” (VALORISATION HSJ, LIMITED PARTNERSHIP, priority 2022, published 2026):
# How the values were obtained:
# [1] = tested on: cord-blood CD34^+ cells (HSC); test: Human immune engraftment (% hCD45) in irradiated NSG mice injected with the progeny of ex vivo cultured cord-blood CD34+ cells
# Protocol: The progeny of 7,500 cord-blood CD34+ cells was cultured under modified air-liquid interface (ALI) conditions for 10 days and injected in irradiated adult NSG mice. Cells were cultured in cytokine-containing (SCF, TPO, FLT-3L) serum-free media (StemSpan™ SFEM, LDL) containing UM729 (40 nM) with or without the addition of aryl hydrocarbon receptor (AhR) receptor antagonist CH-223191 (1 μM). Human immune reconstitution, expressed by the percentage of human CD45 (hCD45) over total CD45, was monitored in peripheral blood after 7, 14 and 25 weeks post-transplantation by flow cytometry. Mean percentage of human CD45 cell engraftment for 2 mice per condition is shown. […]
# Since the ultimate aim is to improve the expansion of engraftable human HSC, the validation methods largely rely on the measurement of immune reconstitution, both short-term and long-term, after transplantation in a humanized mice model. Briefly, NSG mice (Jackson Laboratories, strain 005557) were sublethally irradiated at 2Gy 4 to 24 hours prior to CD34^+ cells intravenous (IV) injection. All harvested cells from 1 culture well were injected into one mouse. Wells from all conditions started with equal numbers of CD34^+ cells from the same source/donor. Therefore, all the progeny of a culture setting was injected into mice. Peripheral blood of humanized mice was harvested every 5 weeks, and human engraftment and immune reconstitution were analyzed by flow cytometry. The earliest point where human engraftment in mice was measured was after 5 weeks and the latest after 35 weeks. The impact of the ALI culture system on HSC engraftment capacity was assessed using base media purchased from STEMCELL Technologies (StemSpan SFEM). A dramatic effect of the ALI methodology on the engraftment of cord-blood HSC was observed relative to the published manual fed-batch culture methodology^4, which includes SCF, TPO, FLT3L and UM171 (FIG. 4).
# [2] = tested on: human CB CD34+ (HSC engraftment); test: In vivo administration of HTR1F agonist to NSG mice humanized with uncultured cord-blood CD34+ cells; human chimerism by flow cytometry; details: 0.3 mg (10 mg/kg) intraperitoneally at 6 h, 24 h, 48 h
# Protocol: 38,000 human CB CD34+ were injected intravenously into irradiated NSG mice (n=8, 16 hrs after irradiation). Starting from 6 hours post-transplantation, half of the mice (n=4) received, by intraperitoneal injection, 0.3 mg of Lasmiditan diluted in 0.02% DMSO in PBS (drug), for a total of 4 doses in regular intervals (6 h, 24 h, 48 h and 72 h) after human HSC injection. The second half (control) received I.P. injection of vehicle (0.02% DMSO in PBS) (n=4; vehicle). Human chimerism was assessed on peripheral blood until 19 weeks post-transplantation as described above, after which time mice were sacrificed and spleen and bone marrow were analyzed. SEM are depicted.
# Lasmiditan, purchased from AdooQ Bioscience (product number A14198), was dissolved in DMSO and ethanol solution. […] Purity and viability were assessed by flow cytometry using the following staining: CD34-APC (Biolegend 343510), CD19-PE (Biolegend, 302208), CD3-PE-Cy7 (Biolegend, 344816), CD45-APC-Cy7 (Biolegend, 368516), 7-AAD (BD Biosciences, 559925), 1 μL AnnV-FITC (Biolegend, 640906). […] The dose was determined based on previous work with LY344864 (used ex vivo above, FIG. 10) in kidney injury recovery studies^16 and is consistent with the dosage of Reyvow® (Lasmiditan) for the treatment of migraine. […]
# Cord-blood CD34^+ cells = test: Ex vivo expansion of the CD34+ population from cord-blood CD34+ cells, counted by flow cytometry; format: cell-based, human; details: for expansion in CD34^+ population: UM171 40 nM, 10 days, SCF/TPO/FLT-3L StemSpan SFEM II
# Protocol: Cord-blood CD34^+ cells were cultured under manual fed-batch (FB) or modified air-liquid interface (ALI) conditions for 10 days. Cells were cultured in cytokine-containing (SCF, TPO, FLT-3L) serum-free media (StemSpan™ SFEM II) where UM171 (40 nM) was added. CD34^+ cells total number was assessed by flow cytometry using […] beads (BD).
# The progeny of 7,500 cord-blood CD34^+ cells was cultured under manual fed-batch (FB) conditions for 6 days and injected in irradiated adult NSG mice. Cells were cultured in cytokine-containing (SCF, TPO, FLT-3L) serum-free media (StemSpan SFEM II) where UM729 (500 nM) or a HTR1F-specific agonist LY573144 (250 nM final concentration) was added. The progeny of an equal number of CD34^+ cells cultured in the same conditions but without UM729 or LY573144 from the same source was used to determine baseline expansion (threshold indicated by the dotted line) and engraftment. Expansion fold, compared to untreated condition, of the CD34^+ population after 6 days of ex vivo culture is shown in the left panel. Human immune reconstitution was monitored in peripheral blood (middle panel) and bone marrow (right panel) at week 25 post-transplantation as described above. Mean percentage of human CD45 cell engraftment for 2 mice per condition is shown.
# An experimental setup was designed where oxygen exchange in the media would be maximized, while adopting the principles of fed-batch cultures (FB) in which medium is renewed and in sufficient quantity to provide nutrients while diluting cell waste. […] In doing so, the maximum of cells was placed directly at the air-liquid interface so that gas exchanges are more efficient. Briefly, HSC were enriched based on CD34 expression marker, from cord-blood units using the Miltenyi CD34 MicroBead Kit UltraPure according to manufacturer's instruction. Purity was determined by flow cytometry using monoclonal CD34-PE antibodies (Clone 581, BD Pharmingen, 555822). […]
# Using this culture method, the expansion of the stem cell population (defined as CD34^+ cells) in the culture wells after 10 days was first assessed. […]
# [3] = progeny of FB culture with LY573144 250 nM for 6 days, 25 weeks after injection
smiles,measurement,setting,value
Cc1ccccc1N=Nc1ccc(NC(=O)c2ccnn2C)c(C)c1 [CH-223191],engraftment capacity of cultured HSC (% hCD45 in peripheral blood),"[1]; CH-223191 1 μM added to ALI culture containing UM729, 10 days, blood at 7, 14 and 25 weeks, vs without CH-223191",did not further increase the engraftment capacity
"CN(C)[C@@H]1CCc2[nH]c3ccc(NC(=O)c4ccc(F)cc4)cc3c2C1.Cl [LY344864, N-[(3R)-3-(Dimethylamino)-2,3,4,9-tetrahydro-1H-carbazol-6-yl]-4-fluorobenzamide hydrochloride]",peripheral blood engraftment (% hCD45),"[1]; LY344864 500 nM in StemSpan SFEM II with SCF/TPO/FLT-3L, 10 days, specifically ALI culture, vs media alone",greatly improved the peripheral blood engraftment
"CN1CCC(C(=O)c2cccc(NC(=O)c3c(F)cc(F)cc3F)n2)CC1 [LY573144, 2,4,6-Trifluoro-N-[6-[(1-methyl-4-piperidinyl)carbonyl]-2-pyridinyl]benzamide]",presence of human immune cells (hCD45^+) in tissues of treated animals,"[2]; 72 h, analysed up to 19 weeks","found in blood, spleen and bone marrow"
same,reconstitution of the immune compartment (human chimerism),"[2]; 72 h after 38,000 CD34+ cells, followed to 19 weeks, vs vehicle",more robust reconstitution of the immune compartment
same,percentage of hCD45^+ cells in the blood,[1]; [3],higher percentages
same,percentage of hCD45^+ cells in the bone marrow,[1]; [3],higher percentages
same,expansion of the CD34^+ population compared to untreated condition,"Cord-blood CD34^+ cells; LY573144 250 nM, FB culture, 6 days",two-fold
"N[C@@H](Cc1cc(I)c(Oc2ccc(O)c(I)c2)c(I)c1)C(=O)O [T3, triiodothyronine]",engraftment of HSC in humanized mice (% hCD45+ lymphocytes in peripheral blood),"[1]; T3 45 ng/mL in SCF/TPO/FLT3L StemSpan SFEM containing UM171, FB culture 10 days, vs UM171 alone or with CH-223191",increased the engraftment of HSC
Cn1nnc(-c2ccc3c(c2)[nH]c2nc(Cc4ccccc4)nc(NC4CCC(N)CC4)c23)n1 (stereo not shown) [UM171],expansion in CD34^+ population,Cord-blood CD34^+ cells; ALI culture,~55 fold
same,expansion in CD34^+ population,Cord-blood CD34^+ cells; fed-batch (FB) culture,~55 fold
